# Patent publication US10253024B2, “Polycyclic indoline and indolenine compounds” (The Regents of the University of Colorado, a body corporate, priority 2015, dated 2019)
# Assays:
# [1] = system: MRSA BAA-44; assay: MIC of antibiotics in absence and presence of 11b (broth microdilution); format: cell-based, S. aureus; conditions: for Fold of potentiation: MIC alone versus with 10 μM 11b; for MIC: Staphylococcus aureus, antibiotic alone; for MIC (+11b): in the presence of 10 μM 11b
# Source text: The MICs of a variety of antibiotics in the presence and absence of 11b, respectively. In addition to methicillin, BAA-44 is also resistant to a wide range of antibiotics, such as tetracycline, erythromycin, and daptomycin. As shown in Table 2-3, compound 11b potentiates the activity of all β-lactams tested, such as oxacillin, amox/clav, cefazolin, and meropenem. Without being bound by any theory, it is believed compound 11b and other compounds of the invention are selective potentiators of β-lactams.
# (§1) The minimal inhibitory concentrations (MICS) of antimicrobial compounds and 11b were determined by the broth microdilution method detailed in the Clinical and Laboratory Standards Institute (CLSI) handbook. All antimicrobial compounds were purchased from Sigma-Aldrich. The growth media used for all MIC experiments was Mueller Hinton Broth (MHB) purchased from HIMEDIA through VWR (cat: 95039-356). The inoculum was prepared by diluting a bacterial day culture (OD600 0.15-0.4) to OD600 0.002. This dilution was further diluted two fold when added to 96 well microplates (USA Scientific CytoOne 96-well TC plate, cat: CC7682-7596) for a final inoculum concentration of OD600 0.001. All plates were incubated at 37° C. with shaking for 18 hours before results were interpreted.
# The MRSA strain ATCC BAA-44 was used to determine the MIC values of various antimicrobial compounds in the presence of 10 μM 11b. The experiment was conducted similarly to the CLSI MIC determination described previously; however, MHB was supplemented with 20 μM 11b prior to set up and inoculation. The final concentration of 11b after inoculation with BAA-44 was 10 μM.
# [2] = system: BAA-44, NRS-100, NRS-384, NR-46414 and NR-46421; assay: MRC of 11b for amox/clav and cefazolin in a variety of MRSA and VRSA strains; format: cell-based, S. aureus; conditions: all strains tested
# Procedure: (§2) The minimum re-sensitizing concentrations (MRCS) of 11b to re-sensitize a variety of MRSA strains to β-lactam antibiotics, amox/clav and cefazolin was also evaluated.
# (§3) Antibiotic MIC values where S. aureus is considered susceptible were determined from the CLSI handbook. MHB was supplemented with the antimicrobial at a concentration two fold greater than the CLSI susceptible MIC value. Two-fold serial dilutions of 11b were prepared in antibiotic supplemented media in 96-well microplates. These were inoculated with MRSA diluted to OD600 0.002 and incubated at 37° C. with shaking for 18 hours before results were interpreted. The concentration of 11b in antibiotic supplemented media at which there was no observable growth was considered the minimum resensitizing concentration (MRC). For amoxicillin/clavulanic acid, the initial concentration was 8/4 μg/mL; for cefazolin, 16 μg/mL. A 50 μL portion of the antibiotic containing media was added to each well of 96-well plates, and 100 μL was added to the top row. A 1.28 μL portion of 5 mg/mL 11b was added to the top row of each plate to afford a concentration of 64 μg/mL in the top row of each plate, and 2-fold serial dilutions were performed down the columns. […] The MRC value was determined as the concentration of 11b in the presence of antibiotic at which there was no observable overnight growth.
# [3] = system: BAA-44, NRS-100, NRS-384, NR-46414 and NR-46421; assay: MIC of 11b on its own in a variety of MRSA and VRSA strains; format: cell-based, S. aureus; conditions: all strains tested
# Procedure: as §2, §1
# [4] = system: MRSA strain ATCC BAA-44; assay: Checkerboard MIC study of 11b and methicillin (FICI); format: cell-based, S. aureus; conditions: 11b with methicillin, ≤0.5 indicates synergy
# Procedure: Tetracyclic indolenine compounds were then evaluated in a series of bacterial whole-cell assays. Compound 11b potentiated the activity of methicillin in a multi-drug resistant MRSA strain, ATCC BAA-44. To assess the degree of synergy between 11b and methicillin, a checkerboard minimum inhibitory concentration (MIC) study was performed.
# [5] = system: multi-drug resistant MRSA strain, ATCC BAA-44; assay: Minimum re-sensitizing concentration (MRC) for cefazolin; format: cell-based, S. aureus; conditions: MRSA ATCC BAA-44; re-sensitizing to cefazolin
# Procedure: (§4) ATIs 11-14 represent a wide range of clogD values and their minimum re-sensitizing concentrations (MRCS) for cefazolin (i.e., a first-generation cephalosporin) and amoxicillin/clavulanic acid (i.e., Augmentin, amox/clav) was evaluated as well as their minimum inhibitory concentrations (MICs) in a multi-drug resistant MRSA strain, ATCC BAA-44. Any compounds with promising MRC and MIC were then evaluated for potential mammalian toxicity by determining their half growth inhibitory concentrations (GI50) in human cervical adenocarcinoma (HeLa) cells.
# (§5) Antibiotic MIC values where S. aureus is considered susceptible were determined from the CLSI handbook. MHB was supplemented with the antimicrobial at a concentration two fold greater than the CLSI susceptible MIC value. Two-fold serial dilutions of 11b were prepared in antibiotic supplemented media in 96-well microplates. These were inoculated with MRSA diluted to OD600 0.002 and incubated at 37° C. with shaking for 18 hours before results were interpreted. The concentration of 11b in antibiotic supplemented media at which there was no observable growth was considered the minimum resensitizing concentration (MRC). For amoxicillin/clavulanic acid, the initial concentration was 8/4 μg/mL; for cefazolin, 16 μg/mL. A 50 μL portion of the antibiotic containing media was added to each well of 96-well plates, and 100 μL was added to the top row. A 1.28 μL portion of 5 mg/mL 11b was added to the top row of each plate to afford a concentration of 64 μg/mL in the top row of each plate, and 2-fold serial dilutions were performed down the columns. Once the plates were prepared, a day culture of MRSA was diluted to OD600 0.002, and 50 μL was added to each well. The final concentration of MRSA added was OD600 0.001, the final concentration of amoxicillin/clavulanic acid was 4/2 μg/mL, the final concentration of cefazolin was 8 μg/mL, and the highest concentration of 11b tested was 32 μg/mL. Plates were incubated overnight at 37° C. with shaking. The MRC value was determined as the concentration of 11b in the presence of antibiotic at which there was no observable overnight growth.
# [6] = system: multi-drug resistant MRSA strain, ATCC BAA-44; assay: Minimum re-sensitizing concentration (MRC) for amoxicillin/clavulanic acid; format: cell-based, S. aureus; conditions: MRSA ATCC BAA-44; re-sensitizing to amoxicillin/clavulanic acid
# Procedure: as §4, §5
# [7] = system: multi-drug resistant MRSA strain, ATCC BAA-44; assay: Minimum inhibitory concentration (MIC) of the compound alone; format: cell-based, S. aureus; conditions: Staphylococcus aureus; MRSA ATCC BAA-44; compound alone
# Procedure: as §4, §1
# [8] = Saturated concentration (aqueous solubility); format: physicochemical
# Procedure: (§6) The physiochemical properties of various compounds were evaluated. […] In vivo pharmacokinetic (PK) properties of 13 was evaluated.
# [9] = In vivo pharmacokinetics and tolerability, single IP dose; conditions: mouse
# Procedure: as §6
# (§7) To test this, permeability assessments were performed using MDCK cells.
# [10] = system: MRSA strains NRS-100 and NRS-384, VRSA strain NR-46414; assay: MRC of 13 in further MRSA/VRSA strains; format: cell-based, S. aureus; conditions: community-acquired MRSA NRS-100, NRS-384 and VRSA NR-46414
# Procedure: Compound 14 is zwitterionic under physiological conditions and has even lower clogD value. Further evaluations of 13 in a variety of MRSA strains, such as community-acquired MRSA strains NRS-100 and NRS-384, and vancomycin-resistant S. aureus (VRSA) strain NR-46414, also gave a similar results (MRCs=2 μg mL^−1).
# as §3, with “row.” for “row. A 1.28 μL portion of 5 mg/mL 11b was added to the top row of each plate to afford a concentration of 64 μg/mL in the top row of each plate, and 2-fold serial dilutions were performed down the columns.”
# [11] = in vitro; conditions: dog, MDCK
# Procedure: as §7
# [12] = Half growth inhibitory concentration (GI50), mammalian toxicity; format: cell-based; conditions: human, HeLa cells (human cervical adenocarcinoma)
# Procedure: as §4
# To evaluate the cytotoxicity of 11b in mammalian cells, a cell viability assay was carried out using CellTiter-Glo luminescent cell viability assay kit (Promega). Human cervical adenocarcinoma HeLa cells were seeded on white, cell-culture treated 96-well plates (Corning: 3917) with Dulbecco's modified Eagle's medium (DMEM) supplemented with 10% fetal calf serum (FCS), 1% penicillin/streptomycin, at the densities of 20,000 cells/well. The medium volume for each well was 100 μL. Cells were incubated at 37° C. in 5% CO2/95% air for 16 hours. The medium was removed from each well and replaced with 99 μL of warmed fresh medium. To each well was then added 1.0 μL of 11b in DMSO with the final concentrations of 1.56-200 μg/mL. Each concentrate was performed in two replicates. After incubation at 37° C. for another 24 hours, the plates were equilibrated to room temperature for 30 minutes. 100 μL of CellTiter-Glo reagent (Promega) was added to each well and mixed for 2 minutes on an orbital shaker. The plate was incubated at room temperature for another 10 minutes to stabilize luminescent signal. The luminescence of each sample was recorded in an Envision Multilabel Plate Reader (Perkin Elmer).
MIC [1],MIC (+11b) [1],Compound,Fold of potentiation [1],MRC Cef [5],MRC Amox/clav [6],MIC [7],other results
128 µg/mL,4 µg/mL,Cc1nnc(SCC2=C(C(=O)O)N3C(=O)[C@@H](NC(=O)Cn4cnnn4)[C@H]3SC2)s1 [Cefazolin],32,,,,
4 µg/mL,1 µg/mL,C[C@@H](O)[C@H]1C(=O)N2C(C(=O)O)=C(S[C@@H]3CN[C@H](C(=O)N(C)C)C3)[C@H](C)[C@H]12 [Meropenem],4,,,,

# More lines, now with the values behind:
Compound,MIC [1],MIC (+11b) [1],Fold of potentiation [1],MRC Cef [5],MRC Amox/clav [6],MIC [7],other results
"C=C1CCC2C3=Nc4ccccc4C13CCN2C(=O)c1ccc(Cl)cc1 (stereo not drawn) [Compound 11b, 11-[(4-Chlorophenyl)carbonyl]-14-methylidene-8,11-diazatetracyclo[8.3.3.0^1,9.0^2.7]hexadeca-2(7),3,5,8-tetraene]",,,,,,,MRCs [2]: 0.25 to 2 µg/mL; MICs [3]: 32 to 64 µg/mL; Fractional Inhibitory Concentration Index (FICI) [4]: 0.039
"C=C1CN(CC(=O)O)C[C@@H]2Nc3c(F)cc(Br)cc3[C@]12CCNS(=O)(=O)c1ccc(Cl)cc1 [Gly-ATI 14, 2-((4aS,9aR)-6-bromo-4a-(2-((4-chlorophenyl)sulfonamido)ethyl)-8-fluoro-4-methylene-1,3,4,4a,9,9a-hexahydro-2H-pyrido[3,4-b]indol-2-yl)acetic acid]",,,,>32 µg/mL,>32 µg/mL,> 32 µg/mL,
"C=C1CN(C(=N)N)C[C@@H]2Nc3c(F)cc(Br)cc3[C@]12CCNS(=O)(=O)c1ccc(Cl)cc1 [Guan-ATI 13, (4aS,9aR)-6-bromo-4a-(2-((4-chlorophenyl)sulfonamido)ethyl)-8-fluoro-4-methylene-1,3,4,4a,9,9a-hexahydro-2H-pyrido[3,4-b]indole-2-carboximidamide]",,,,2 µg/mL,2 µg/mL,8 µg/mL,"saturated concentration [8]: 587 µg/mL; saturated concentration as fold of MRC in MRSA [8]: ~300 fold; plasma levels as multiple of MRC in MRSA ([9]; in vivo, 30 min): approximately 4 ×MRC; AUC ([9]; plasma, 30 mg/kg): 18200 ng·h/mL; Cmax ([9]; plasma, 30 mg/kg): 8000 ng/mL; half-life ([9]; plasma, 30 mg/kg): 2.5 h; MRCs [10]: 2 µg/mL; Papp [11]: 2.11 ×10⁻⁶ cm/s; GI50 at 24 h [12]: 40 µg/mL"
COc1cccc(OC)c1C(=O)N[C@@H]1C(=O)N2[C@@H]1SC(C)(C)[C@@H]2C(=O)O [Methicillin],128 µg/mL,8 µg/mL,16,,,,
